Where a SMILES comes first, the peptide text is derived from it. Bridges are numbered along the chain shown (N, C = ends). [ ]: non-standard residue; d: D form. The star is where a group is joined. Phe(4-COOH) = N[C@@H](Cc1ccc(C(=O)O)cc1)C(=O)O; Bip = N[C@@H](Cc1ccc(-c2ccccc2)cc1)C(=O)O; Phe(3-Me) = Cc1cccc(C[C@H](N)C(=O)O)c1; 4Pal = N[C@@H](Cc1ccncc1)C(=O)O; Cha = N[C@@H](CC1CCCCC1)C(=O)O; Cit = NC(=O)NCCC[C@H](N)C(=O)O; Tle = CC(C)(C)[C@H](N)C(=O)O; Nle = CCCC[C@H](N)C(=O)O; Orn = NCCC[C@H](N)C(=O)O; Dab = NCC[C@H](N)C(=O)O; Dap = NC[C@H](N)C(=O)O; Propargyl = C#CC*
Each molecule was assayed against T1, human PD-1 / PD-L1-Ig binding on Jurkat cell line over-expressing human PD-1 (Jurkat-PD-1) (Homo sapiens, UniProt Q15116) (assay: Jurkat-PD-1 Cell Binding High-Content Screening Assay (CBA)). Settings: Jurkat-PD-1 cells, PE-labeled PD-L1-Ig 20 nM final; read-out: Jurkat HPD1_PDL1 IC50.
T1 construct: expressed in transfected cells; host or cells: Jurkat
Format: cell-based
How it was run: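 Cell-bound PE-labeled PD-L1-Ig (20 nM final, 1 h) measured by high-content imaging after fixation and Hoechst 33342 counterstain. Compound was applied first for 2 h at 37° C. to Jurkat cells over-expressing human PD-1 in DMEM with 10% FCS.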

T1 sequence (Q15116 25-288): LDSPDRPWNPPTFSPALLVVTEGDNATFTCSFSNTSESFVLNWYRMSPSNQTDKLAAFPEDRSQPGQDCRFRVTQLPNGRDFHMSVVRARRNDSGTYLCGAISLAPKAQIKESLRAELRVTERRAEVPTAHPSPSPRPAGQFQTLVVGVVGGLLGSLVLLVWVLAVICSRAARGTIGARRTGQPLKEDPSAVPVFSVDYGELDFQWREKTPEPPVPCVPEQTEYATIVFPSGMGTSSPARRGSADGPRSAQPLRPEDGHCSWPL

| IC50 | Structure (SMILES) |
| --- | --- |
| 0.0198 µM | CC(C)C[C@@H]1NC(=O)[C@H](Cc2c[nH]c3ccccc23)NC(=O)[C@H](CC(=O)O)NC(=O)[C@H](Cc2ccc(O)cc2)NC(=O)[C@H](Cc2ccccc2)NC(=O)CSC[C@@H](C(=O)NCC(N)=O)NC(=O)[C@H](CO)NC(=O)[C@H](C(C)C)NC(=O)[C@H](CC(C)C)NC(=O)[C@H](CCN)NC(=O)[C@@H](CC(C)C)NC(=O)[C@H](CCN)NC(=O)[C@H](C(C)C)NC(=O)[C@H](Cc2ccc(-c3ccccc3)cc2)NC1=O [Compound 1063] ({CH2CO}-FYDWL[Bip]V[Dab][dL][Dab]LVSCG-NH2; thioether N-14) |
| 0.0012 µM | C#CCOc1ccc(C[C@@H]2NC(=O)[C@H](Cc3cccc(C)c3)NC(=O)[C@H](CC(=O)O)NC(=O)[C@H](Cc3ccc(C(=O)O)cc3)NC(=O)[C@H](CCCC)NC(=O)CSC[C@@H](C(=O)N[C@@H](CCN)C(N)=O)NC(=O)[C@H](CCC(=O)O)NC(=O)[C@H](C(C)C)NC(=O)[C@H](CC3CCCCC3)NC(=O)[C@H](CCN)NC(=O)[C@@H](CC(C)C)NC(=O)[C@H](CCCN)NC(=O)[C@H](Cc3ccc(C(=O)O)cc3)NC(=O)[C@H](Cc3ccc(-c4ccccc4)cc3)NC2=O)cc1 [Compound 1842] ({CH2CO}-[Nle][Phe(4-COOH)]D[Phe(3-Me)]Y(Propargyl)[Bip][Phe(4-COOH)][Orn][dL][Dab][Cha]VEC[Dab]-NH2; thioether N-14) |
| 0.0137 µM | CC(C)C[C@H]1NC(=O)[C@H](CCCN)NC(=O)[C@H](CCCN)NC(=O)[C@H](Cc2ccc(-c3ccccc3)cc2)NC(=O)[C@H](C(C)C)NC(=O)[C@H](Cc2c[nH]c3ccccc23)NC(=O)[C@H](CC(=O)O)NC(=O)[C@H](Cc2ccc(O)cc2)NC(=O)[C@H](CC(N)=O)NC(=O)CSC[C@@H](C(=O)N[C@@H](C)C(N)=O)NC(=O)[C@H]([C@@H](C)O)NC(=O)[C@H](C(C)C)NC(=O)[C@H](CC2CCCCC2)NC(=O)[C@H](CCN)NC1=O [Compound 1378] ({CH2CO}-NYDWV[Bip][Orn][Orn][dL][Dab][Cha]VTCA-NH2; thioether N-14) |
| 0.0182 µM | Cc1cccc(C[C@@H]2NC(=O)[C@H](CC(=O)O)NC(=O)[C@H](Cc3ccc(C(=O)O)cc3)NC(=O)[C@H](Cc3ccncc3)NC(=O)CSC[C@@H](C(N)=O)NC(=O)[C@H]([C@@H](C)O)NC(=O)[C@H](C(C)(C)C)NC(=O)[C@H](CC3CCCCC3)NC(=O)[C@H](CCN)NC(=O)[C@@H](CC(C)C)NC(=O)[C@H](CCCN)NC(=O)[C@H](CCCNC(N)=O)NC(=O)[C@H](Cc3ccc(-c4ccccc4)cc3)NC(=O)[C@H](C(C)C)NC2=O)c1 [Compound 2266] ({CH2CO}-[4Pal][Phe(4-COOH)]D[Phe(3-Me)]V[Bip][Cit][Orn][dL][Dab][Cha][Tle]TC-NH2; thioether N-14) |
| 0.0405 µM | CC(C)[C@@H]1NC(=O)[C@H](Cc2c[nH]c3ccccc23)NC(=O)[C@H](CC(=O)O)NC(=O)[C@H](Cc2ccncc2)NC(=O)[C@H](CN)NC(=O)CSC[C@@H](C(=O)N[C@@H](C)C(N)=O)NC(=O)[C@H]([C@@H](C)O)NC(=O)[C@H](C(C)C)NC(=O)[C@H](CC2CCCCC2)NC(=O)[C@H](CCN)NC(=O)[C@@H](Cc2ccccc2)NC(=O)[C@H](CCCN)NC(=O)[C@H](CCC(=O)O)NC(=O)[C@H](Cc2ccc(-c3ccccc3)cc2)NC1=O [Compound 1433] ({CH2CO}-[Dap][4Pal]DWV[Bip]E[Orn][dF][Dab][Cha]VTCA-NH2; thioether N-14) |
| 0.0136 µM | C#CCOc1ccc(C[C@@H]2NC(=O)[C@H](Cc3ccc(-c4ccccc4)cc3)NC(=O)[C@H](C(C)C)NC(=O)[C@H](Cc3cccc(C)c3)NC(=O)[C@H](CC(=O)O)NC(=O)[C@H](Cc3ccc(C(=O)O)cc3)NC(=O)[C@H](CN)NC(=O)CSC[C@@H](C(=O)N[C@@H](CCN)C(N)=O)NC(=O)[C@H]([C@@H](C)O)NC(=O)[C@H](C(C)C)NC(=O)[C@H](CC3CCCCC3)NC(=O)[C@H](CCN)NC(=O)[C@@H](CC(C)C)NC(=O)[C@H](CCCN)NC2=O)cc1 [Compound 2024] ({CH2CO}-[Dap][Phe(4-COOH)]D[Phe(3-Me)]V[Bip]Y(Propargyl)[Orn][dL][Dab][Cha]VTC[Dab]-NH2; thioether N-14) |
